Data reported in PMC11343376, “In vivo pharmacokinetics of ginsenoside compound K mediated by gut microbiota” (PLOS ONE, 2024).
Where two headings read alike, the source gives them in different places.

Experiments:
[1] = Pharmacokinetics of GCK in SPF and pseudo-GF rats after single oral administration (LC-MS/MS of plasma); type: in vivo, Sprague-Dawley (SD) rats; conditions: for AUC(0-inf) / Tmax / half-life / AUC(0-t) / CL/F / MRT last / Vd/F / Cmax: Sprague-Dawley, rat, plasma, po, 22.5 mg/kg, GCK 22.5 mg/kg single oral dose; for AUC(0-t): read-out: AUC (0–11); for CL/F: read-out: CLz/F (converted); for MRT last: read-out: MRT(0–11); for Vd/F: read-out: Vz/F; for Cmax: rat plasma, n = 7, mean ± SD
Method: SD rats were randomly divided into two groups: normal control group (SPF group, n = 7) and pseudo-GF group (n = 7). To deplete the gut microbiota, a solution of ampicillin (50 mg/kg), vancomycin (25 mg/kg), neomycin sulfate (50 mg/kg), and metronidazole (50 mg/kg) were orally administered. Fresh antibiotic concoction with fed ampicillin in water (0.25 g/L) were prepared every day for a week. The feces were collected three days after withdrawal, and then the gut bacterial DNA was extracted with a stool DNA kit (Omega, D4015-01) and measured by Nonodrop 3000 spectrophotometer (Shimadzu, Japan).
The mass spectrometer analysis was performed on QTRAP 6500^+ low mass spectrometers. The Phenomenex LUNA C18 (2) Reversed Phase (Phenomenex, 150 × 2.0 mm, i.d., 5 μm) was used for the chromatographic separation with a mobile phase of acetonitrile (A) and the aqueous phase of 2 mM ammonium acetate (B) at a flow rate of 0.3 mL/min. The gradient elution procedure was set at 0−2 min: 20%A, 2−3 min: 20−65%A, 3−4 min: 65−75%A, 4−5 min: 75−90%A, 5−6 min: 90−100%A, and the re-equilibration time was set for 5 mins with 20%A after gradient elution. The tailing factors under the selected chromatographic conditions were calculated as 0.993 and 0.996 for GCK and PPD, respectively, while the theoretical plates were measured as 1.13 × 10^4. The injection volume was 10 μL with the temperature of column at 40°C. The mass spectrometer parameters were optimized as follow, Curtain Gas (CUR), 35; collision gas, 9;, ionspray voltage,-4500 V; temperature, 450°C; curtain gas, 35 psi; ion source gas 1, 50 psi; ion source gas 2, 55 psi. Both GCK and PPD were analyzed in multiple reaction monitoring (MRM) mode, shown as Fig 1.
After fasted for 12 h, all animals were once orally administrated with a medium dose of GCK (22.5 mg/kg) in 0.9% normal saline. Blood samples were collected from the tail vein at 0 h, 0.5 h, 1 h, 1.5 h, 2.5 h, 3 h, 3.5 h, 4 h, 5 h, 6 h, 7 h, 9.5 h, and 11 h after oral administration. All blood samples were immediately centrifuged at 4000 rpm for 20 min at 4°C. Approximate 100 μL of supernatant was collected and stored at -80°C for analysis. Non-compartmental model analysis was operated on DAS 2.0 software of the Chinese Pharmacological Society, and pharmacokinetic parameters were calculated accordingly.
The blood samples (50 μL) were mixed with 150 μL of digoxin solution (Internal standard (IS), 3.33 ng/mL), subsequently vortex-mixed and centrifuged at 1.4 × 10^4 rpm (4°C) to remove the precipitated proteins for 10 min, respectively. Finally, 100 μL of supernatant was subjected to LC-MS/ MS analysis.
Pharmacokinetics parameters including AUC, terminal elimination half-life (T1/2), mean retention time (MRT), apparent distribution volume (Vz/ F), and clearance rate (CL) were calculated using non-compartmental model analysis (DAS 2.0 software, Chinese Pharmacological Association, China). Other parameters, such as maximum plasma concentration (Cmax) and time to maximum plasma concentration (Tmax), were obtained directly from the plasma concentration-time diagram. All data were expressed as mean ± SD. Significant differences were marked by the symbols ** p < 0.01, *** p < 0.001, and **** p < 0.0001.

[2] = Freeze/thaw and long-term stability of QC samples in rat plasma; type: physicochemical; conditions: n = 6; for Freeze/thaw stability Accuracy: frozen –80°C / thawed 25°C three cycles; for long-term stability Accuracy: –80°C for thirty days
Method: The LQC, MQC, and HQC samples were stored at –80°C for thirty days. The employed samples were tested to assess long-term stability. Six replicates of all QC samples were frozen at –80°C and thawed at 25°C for three cycles, which were then determined to assess the freeze/thaw cycle stability. The variabilities of precision and accuracy should be within15%.

[3] = design: method as in PMID 28955238; conditions: human plasma, single dose of oral GCK; ref [14]; cited from earlier work
[4] = pseudo-GF rats compared with SPF rats
[5] = high QC (GCK 552, PPD 456 ng/mL)
[6] = low QC (GCK 10.8, PPD 8.91 ng/mL)
[7] = middle QC (GCK 86.3, PPD 71.3 ng/mL)

CC(C)=CCCC(C)(OC1OC(CO)C(O)C(O)C1O)C1CCC2(C)C1C(O)CC1C3(C)CCC(O)C(C)(C)C3CCC12C (stereo not drawn) [GCK, Ginsenoside Compound K]
AUC(0-inf) ([1]; SPF group): 679 ± 284 ng·h/mL | Tmax ([1]; SPF group): 3.36 ± 1.25 h | half-life ([1]; SPF group): 2.2 ± 1.69 h | AUC(0-t) ([1]; SPF group): 586 ± 161 ng·h/mL | CL/F ([1]; SPF group): 632 mL/min/kg | MRT last ([1]; SPF group): 4.16 ± 1.11 h | Vd/F ([1]; SPF group): 96.5 ± 44.9 L/kg | Cmax ([1]; SPF group): 162 ± 46.9 ng/mL | AUC(0-inf) ([1]; pseudo-GF group): 2300 ± 1630 ng·h/mL | Tmax ([1]; pseudo-GF group): 5.86 ± 1.35 h | half-life ([1]; pseudo-GF group): 3.93 ± 1.65 h | AUC(0-t) ([1]; pseudo-GF group): 1340 ± 402 ng·h/mL | CL/F ([1]; pseudo-GF group): 226 mL/min/kg | MRT last ([1]; pseudo-GF group): 6.05 ± 0.42 h | Vd/F ([1]; pseudo-GF group): 63.2 ± 15.4 L/kg | Cmax ([1]; pseudo-GF group): 259 ± 70 ng/mL | AUC increased ([1]; pseudo-GF group compared with SPF group): approximately twice | AUC 0–11 increased by [1, 4]: 1.3 times | Cmax times higher than that of SPF rats [1, 4]: 1.6 times | CLz/F decreased by ([1]; pseudo-GF rats compared with SPF rats, P <0.01): 0.6 times | Freeze/thaw stability Accuracy [2, 5]: 104.11% | Freeze/thaw stability Accuracy [2, 6]: 102.76% | Freeze/thaw stability Accuracy [2, 7]: 106.47% | long-term stability Accuracy [2, 5]: 103.91% | long-term stability Accuracy [2, 6]: 95.56% | long-term stability Accuracy [2, 7]: 103.32%

CC(C)=CCC[C@](C)(O)[C@H]1CC[C@]2(C)[C@@H]1[C@H](O)C[C@@H]1[C@@]3(C)CC[C@H](O)C(C)(C)[C@@H]3CC[C@]12C [PPD, protopanaxadiol]
Detection of the metabolite PPD in rat plasma ([1]; after single oral GCK 22.5 mg/kg, both SPF and pseudo-GF groups, LLOQ 4.45 ng/mL): not detected | Freeze/thaw stability Accuracy [2, 5]: 89.65% | Freeze/thaw stability Accuracy [2, 6]: 92.44% | Freeze/thaw stability Accuracy [2, 7]: 93.50% | long-term stability Accuracy [2, 5]: 101.93% | long-term stability Accuracy [2, 6]: 96.17% | long-term stability Accuracy [2, 7]: 97.83% | Cmax of PPD [3]: ~4.2 ng/mL | T1/2 of PPD [3]: more than 19 hours | Tmax of PPD [3]: ~25 h
